Laboratory results from patent US20090191193A1, “Aryl Vinyl Sulfides, Sulfones, Sulfoxides and Sulfonamides, Derivatives Thereof and Therapeutic Uses Thereof” (TEMPLE UNIVERSITY-OF THE COMMONWEALTH SYSTEM OF HIGHER …, priority 2006, published 2009).

How the values were obtained:
DU145 (prostate cancer) = experiment: Effect on tumor cell lines, viable cell count by trypan blue exclusion (Latham et al.): DU145; type: cell-based; conditions: DU145 prostate cancer cells, viable cell count 96 hours after treatment
Experimental: (§1) The effect of the compounds of the invention on tumor cells was determined by the assay described by Latham et al., Oncogene 12:827-837 (1996). Tumor cells DU145 (prostate cancer), K562 (chronic myelogenous leukaemia), BT20 (breast carcinoma), H157 (non small cell lung carcinoma), or DLD1 (colon carcinoma) were plated in 6-well dishes at a cell density of 1.0×10^5 cells per 35-mm^2 well. […] The total number of viable cells was determined 96 hours later by trypsinizing the wells and counting the number of viable cells, as determined by trypan blue exclusion, using a hemacytometer. Normal HFL cells were treated with the same compounds under the same conditions of concentration and time.

[1] = test system: K562 (chronic myelogenous leukaemia); experiment: Effect on tumor cell lines, viable cell count by trypan blue exclusion (Latham et al.): K562; type: cell-based; conditions: K562 chronic myelogenous leukaemia cells, viable cell count 96 hours after treatment
Experimental: as §1

Row | IC50 (DU145 (prostate cancer); Homo sapiens, DU-145, 96 h) | melting point | IC50 ([1]; Homo sapiens, K562, 96 h) | IC50 (DU145 (prostate cancer)) | IC50 [1] | Compound
1 | 50 to 100 µM | 154 to 156 °C | 25 to 50 µM | – | – | COc1cc(OC)c(/C=C(\C#N)S(=O)(=O)Nc2ccccc2Oc2ccccc2)c(OC)c1 [Example 208]
2 | > 100 µM | 169 to 172 °C | 50 to 100 µM | – | – | Cc1cc(C)cc(/C=C(\C#N)S(=O)(=O)Cc2ccc(Br)cc2)c1 [Example 101]
3 | > 100 µM | 156 to 160 °C | > 100 µM | – | – | COc1ccc(CS(=O)(=O)/C(C#N)=C/c2ccc(OC)cc2OC)cc1 [Example 147]
4 | > 100 µM | 143 to 152 °C | > 100 µM | – | – | COc1ccc(/C=C(\C#N)S(=O)(=O)Cc2ccc(Cl)cc2)cc1 [Example 50]
5 | > 100 µM | 242 to 247 °C | > 100 µM | – | – | COc1ccc(/C=C(\C#N)S(=O)(=O)Cc2ccc(Cl)cc2Cl)c(O)c1 [Example 113]
6 | > 100 µM | 178 to 180 °C | 50 to 100 µM | – | – | COc1cc(/C=C(\C#N)S(=O)(=O)Nc2ccc(C)cc2C)cc(OC)c1OC [Example 268]
7 | 1 to 10 µM | 243 to 253 °C | 1 to 10 µM | – | – | N#C/C(=C\c1ccc([N+](=O)[O-])cc1F)S(=O)(=O)Cc1ccc(Cl)cc1 [Example 48]
8 | > 100 µM | 139 to 141 °C | 50 to 100 µM | – | – | Cc1ccc(NS(=O)(=O)/C(C#N)=C/c2cc(C)ccc2C)c(C)c1 [Example 259]
9 | > 100 µM | 153 to 163 °C | 50 to 100 µM | – | – | N#C/C(=C\c1ccc(Cl)cc1Cl)S(=O)(=O)Cc1ccc(F)cc1 [Example 85]
10 | > 100 µM | 127 to 129 °C | > 100 µM | – | – | COc1ccc(/C=C(\C#N)S(=O)(=O)Nc2ccc(C)cc2C)cc1 [Example 270]
11 | > 100 µM | 152 to 154 °C | > 100 µM | – | – | Cc1ccc(NS(=O)(=O)/C(C#N)=C/c2ccc(O)cc2)c(C)c1 [Example 271]
12 | > 100 µM | 170 to 172 °C | 50 to 100 µM | – | – | COc1ccc(CS(=O)(=O)/C(C#N)=C/c2c(F)c(F)c(F)c(F)c2F)cc1OS(=O)(=O)c1ccc(C)cc1 [Example 38, (E)-2-[(4-methoxy-3-(4-methylphenylsulfonyloxy)phenyl)methanesulfonyl]-3-(2,3,4,5,6-pentafluorophenyl)acrylonitrile]
13 | 25 to 50 µM | 145 to 155 °C | 10 to 25 µM | – | – | N#C/C(=C\c1ccc(Cl)c(Cl)c1)S(=O)(=O)Cc1ccc(Cl)cc1 [Example 52]
14 | > 100 µM | 142 to 148 °C | > 100 µM | – | – | Cc1ccc(/C=C(\C#N)S(=O)(=O)Cc2ccc(Br)cc2)s1 [Example 118]
15 | > 100 µM | 150 to 152 °C | > 100 µM | – | – | CCOc1ccc(/C=C(\C#N)S(=O)(=O)Nc2ccc(F)cc2)cc1OC [Example 251]
16 | > 100 µM | 83 to 85 °C | 50 to 100 µM | – | – | N#C/C(=C\c1ccc(O)c([N+](=O)[O-])c1)S(=O)(=O)Nc1ccccc1Oc1ccccc1 [Example 209]
17 | 50 to 100 µM | 219 to 223 °C | 50 to 100 µM | – | – | N#C/C(=C\c1ccccc1)S(=O)(=O)Cc1ccc(Cl)cc1Cl [Example 112]
18 | > 100 µM | 122 to 130 °C | 50 to 100 µM | – | – | Cc1ccc(C)c(/C=C(\C#N)S(=O)(=O)Cc2ccc(F)cc2)c1 [Example 90]
19 | 25 to 50 µM | 169 to 171 °C | 25 to 50 µM | – | – | N#C/C(=C\c1ccc(Cl)cc1)S(=O)(=O)Nc1ccc(Br)cc1 [Example 212]
20 | 50 to 100 µM | 208 to 210 °C | 25 to 50 µM | – | – | N#C/C(=C\c1c[nH]c2ccccc12)S(=O)(=O)Nc1ccc(Br)cc1 [Example 214]
21 | 50 to 100 µM | 84 to 86 °C | 25 to 50 µM | – | – | COc1ccc(NS(=O)(=O)/C(C#N)=C/c2ccc(Cl)c(Cl)c2)cc1 [Example 288]
22 | 50 to 100 µM | 145 to 168 °C | 25 to 50 µM | – | – | N#C/C(=C\c1ccc(Cl)cc1)S(=O)(=O)Cc1ccc(Cl)cc1 [Example 61]
23 | 1 to 10 µM | 142 to 144 °C | 1 to 10 µM | – | – | CCOc1ccc(/C=C(\C#N)S(=O)(=O)Nc2ccccc2Oc2ccccc2)cc1OC [Example 211]
24 | > 100 µM | 160 to 165 °C | > 100 µM | – | – | N#C/C(=C\c1cccc(O)c1)S(=O)(=O)Cc1cccc(Br)c1 [Example 117]
25 | > 100 µM | 142 to 149 °C | 50 to 100 µM | – | – | Cc1ccc(C)c(/C=C(\C#N)S(=O)(=O)Cc2ccc(Cl)cc2Cl)c1 [Example 96]
26 | 50 to 100 µM | 201 to 205 °C | 50 to 100 µM | – | – | COc1ccc(NS(=O)(=O)/C(C#N)=C/c2c[nH]c3ccccc23)cc1 [Example 278]

Row | IC50 (DU145 (prostate cancer); Homo sapiens, DU-145, 96 h) | melting point | IC50 ([1]; Homo sapiens, K562, 96 h) | IC50 (DU145 (prostate cancer)) | IC50 [1] | Compound
27 | > 100 µM | 141 to 142 °C | > 100 µM | – | – | Cc1ccc(/C=C(\C#N)S(=O)(=O)Nc2ccc(F)cc2)cc1C [Example 244]
28 | 50 to 100 µM | 177 to 180 °C | 50 to 100 µM | – | – | COc1cc(OC)c(/C=C(\C#N)S(=O)(=O)Cc2ccc(Cl)cc2)c(OC)c1 [Example 53]
29 | > 100 µM | 152 to 154 °C | > 100 µM | – | – | COc1ccccc1/C=C(\C#N)S(=O)(=O)Nc1ccc(F)cc1 [Example 247]
30 | > 100 µM | 116 to 118 °C | 50 to 100 µM | – | – | COc1ccccc1/C=C(\C#N)S(=O)(=O)Nc1ccccc1Oc1ccccc1 [Example 199]
31 | – | 151 to 154 °C | – | 25 to 50 µM | 10 to 25 µM | COc1ccc(NS(=O)(=O)/C(C#N)=C/c2c(OC)cc(OC)cc2OC)cc1 [Example 279]
32 | 50 to 100 µM | 132 to 137 °C | 50 to 100 µM | – | – | COc1ccc(OC)c(/C=C(\C#N)S(=O)(=O)Cc2ccc(Cl)cc2Cl)c1 [Example 106]
33 | > 100 µM | 163 to 167 °C | > 100 µM | – | – | COc1ccc(/C=C(\C#N)S(=O)(=O)Cc2ccc(OC)cc2)cc1 [Example 141]
34 | 50 to 100 µM | 166 to 168 °C | 10 to 25 µM | – | – | Cc1ccc(NS(=O)(=O)/C(C#N)=C/c2sccc2C)c(C)c1 [Example 257]
35 | > 100 µM | 166 to 169 °C | > 100 µM | – | – | Cc1ccc(NS(=O)(=O)/C(C#N)=C/c2ccc(C)c(C)c2)c(C)c1 [Example 264]
36 | 25 to 50 µM | 127 to 129 °C | 10 to 25 µM | – | – | N#C/C(=C\c1ccccc1OCc1ccccc1)S(=O)(=O)Nc1ccc(F)cc1 [Example 230]
37 | > 100 µM | 145 to 155 °C | 50 to 100 µM | – | – | N#C/C(=C\c1ccc(Cl)c(Cl)c1Cl)S(=O)(=O)Cc1ccc(Cl)cc1 [Example 62]
38 | > 100 µM | 155 to 169 °C | 50 to 100 µM | – | – | CCOc1cc(/C=C(\C#N)S(=O)(=O)Cc2ccc(Cl)cc2)ccc1O [Example 54]
39 | > 100 µM | 120 to 128 °C | > 100 µM | – | – | COc1ccc(/C=C(\C#N)S(=O)(=O)Cc2ccc(Cl)cc2)c(OC)c1OC [Example 46]
40 | 75 µM | 158 to 160 °C | 10 µM | – | – | COc1cc(OC)c(/C=C(\C#N)S(=O)(=O)Cc2ccc(Br)cc2)c(OC)c1 [Example 20]
41 | 50 to 100 µM | 264 to 275 °C | 50 to 100 µM | – | – | N#C/C(=C\c1c[nH]c2ccc(Br)cc12)S(=O)(=O)Cc1ccc(Cl)cc1Cl [Example 71]
42 | > 100 µM | 114 to 127 °C | 50 to 100 µM | – | – | COc1ccc(/C=C(\C#N)S(=O)(=O)Cc2ccc(Cl)cc2Cl)cc1 [Example 99]
43 | 50 to 100 µM | 202 to 204 °C | 25 to 50 µM | – | – | N#C/C(=C\c1c[nH]c2ccccc12)S(=O)(=O)Nc1ccc(F)cc1 [Example 231]
44 | 50 to 100 µM | 94 to 96 °C | 50 to 100 µM | – | – | COc1ccc(/C=C(\C#N)S(=O)(=O)Nc2ccc(Cl)cc2)cc1 [Example 195]
45 | > 100 µM | 142 to 144 °C | 50 to 100 µM | – | – | COc1ccc(/C=C(\C#N)S(=O)(=O)Nc2ccc(F)cc2)c(F)c1 [Example 241]
46 | > 100 µM | 159 to 162 °C | 50 to 100 µM | – | – | N#C/C(=C\c1ccc(O)c([N+](=O)[O-])c1)S(=O)(=O)Cc1ccccc1 [Example 139]
47 | > 100 µM | 108 to 110 °C | 50 to 100 µM | – | – | N#C/C(=C\c1ccc(Cl)cc1)S(=O)(=O)Nc1ccc(F)cc1 [Example 248]
48 | > 100 µM | 155 to 165 °C | 50 to 100 µM | – | – | COc1ccc(/C=C(\C#N)S(=O)(=O)Cc2ccc(Cl)cc2)cc1O [Example 44]
49 | > 100 µM | 155 to 160 °C | > 100 µM | – | – | N#C/C(=C\c1ccccc1Cl)S(=O)(=O)Cc1ccccc1 [Example 130]
50 | 50 to 100 µM | 145 to 150 °C | 50 to 100 µM | – | – | N#C/C(=C\c1ccc(F)cc1)S(=O)(=O)Cc1ccc(Cl)cc1 [Example 47]
51 | < 1 µM | 171 to 173 °C | < 1 µM | – | – | Cc1ccc(NS(=O)(=O)/C(C#N)=C/c2cc(Cl)cc(Cl)c2Cl)c(C)c1 [Example 263]
